Measurements taken from patent US5342838A, “Phenolic thioetheramides” (G. D. Searle & Co., priority 1993, dated 1994).

Key:
[1] = system: FMLP-stimulated human neutrophils (superoxide generation); experiment: Human neutrophil superoxide generation, FMLP-stimulated, cytochrome C reduction; format: cell-based; settings: for inhibition at 50 µM / activation at 50 µM: Homo sapiens; for inhibition at 50 µM: inhibited at 50 μM, read-out: Effect on FMLP Induced Superoxide: inhibited (% < control); for Effect on FMLP Induced Superoxide: stimulated (% > control) / activation at 50 µM: % above control; for activation at 50 µM: stimulated at 50 μM, read-out: Effect on FMLP Induced Superoxide: stimulated (% > control)
Description: The compounds of the invention are evaluated with respect to superoxide modulating activity according to the following assay procedure:
Human neutrophil superoxide generation:
Superoxide generation by formyl-methionyl-leucyl-phenylalanine (FMLP)-stimulated neutrophils was quantitated by the reduction of cytochrome C (Badwey, J. A., Curnutte, J. T. and Karnovsky, M. L., cis-Polyunsaturated fatty acids induce high levels of superoxide production by human neutrophils. J. Biol. Chem. 256: 12640-12643, 1981.) To 5 million neutrophils in 2.85 ml of Krebs-Ringer phosphate buffer, pH 7.2, 50 ul of inhibitor (in 10% DMSO/buffer), and 50 ul ferricytochrome C (5 mM, stock) were added and preincubated for 3 minutes at 37° C. Absorption measurements at 550 nm were recorded at start of preincubation. Fifty ul FMLP (6 μM, stock) was added to initiate reaction. A plateau was reached within 3 minutes and this reading - initial reading (before addition of FMLP) was used to calculate nanomoles of superoxide generated based on a molar extinction coefficient of 2.1×10^4 cm^-1 mole^-1.
Isolation of human neutrophils:
Human neutrophils were isolated from freshly drawn blood of healthy donors. Two ml of 5% dextran (MW 200,000-300,000) in saline was added to 10 ml aliquots of blood, mixed and placed upright for 45 min. at 37° C. Approx. 8-10 ml of the plasma-white cell suspension from the dextran sedimentation was layered on 3 ml of Ficol-paque in a 15 ml tube and centrifuged at 400 g for 30 min. The supernate, containing plasma and platelets, was discarded by aspiration, and the pellet, containing predominantly neutrophils, was resuspended in 1 ml saline. The suspension was transferred to a clean tube, and pooled with other aliquots of blood treated similarly. The pooled suspension was centrifuged at 350 g for 5 min. and supernate discarded. The pellet was resuspended in 5 ml of 0.05% NaCl with a plastic Pasteur pipette for 25 seconds to lyse contaminating red cells, then 5 ml of 1.75% NaCl added to regain isotonicity. The red cell lysing procedure was repeated, the cells suspended in appropriate buffer (depending on assay) and counted.

5-lipoxygenase = molecular target: T1, 5-lipoxygenase (Rattus norvegicus, UniProt P12527); experiment: Inhibition of 5-lipoxygenase, in vitro (5-HETE synthesis, RBL-1 100,000 x g supernatant); format: biochemical; settings: RBL-1 homogenate supernatant
T1 construct: supernatant fraction of Rat Basophilic Leukemia Cell Homogenate (RBL-1) serves as a 5-lipoxygenase enzyme source; endogenous in cells; host or cells: RBL-1 (rat basophilic leukemia) cell homogenate, 100,000 x g supernatant
T1 sequence (P12527 1-673): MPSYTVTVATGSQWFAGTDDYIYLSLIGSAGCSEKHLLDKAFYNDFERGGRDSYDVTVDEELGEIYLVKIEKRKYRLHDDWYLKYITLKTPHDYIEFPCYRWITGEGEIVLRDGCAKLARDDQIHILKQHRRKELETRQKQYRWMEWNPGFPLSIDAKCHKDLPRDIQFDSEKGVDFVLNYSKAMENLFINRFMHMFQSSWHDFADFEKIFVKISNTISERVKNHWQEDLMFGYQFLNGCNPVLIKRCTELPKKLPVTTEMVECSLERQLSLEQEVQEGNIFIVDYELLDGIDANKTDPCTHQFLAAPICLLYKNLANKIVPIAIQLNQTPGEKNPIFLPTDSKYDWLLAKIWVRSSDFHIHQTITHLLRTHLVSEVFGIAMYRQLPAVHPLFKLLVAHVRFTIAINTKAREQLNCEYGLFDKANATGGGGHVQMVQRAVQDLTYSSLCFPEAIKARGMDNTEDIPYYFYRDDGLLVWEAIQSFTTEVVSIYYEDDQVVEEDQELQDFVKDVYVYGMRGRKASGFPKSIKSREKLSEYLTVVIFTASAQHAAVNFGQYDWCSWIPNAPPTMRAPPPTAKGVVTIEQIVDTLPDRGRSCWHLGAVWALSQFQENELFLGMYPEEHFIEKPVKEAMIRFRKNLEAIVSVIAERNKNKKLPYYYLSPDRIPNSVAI
Description: The compounds of the invention are evaluated with respect to 5-lipoxygenaseinhibition according to the following assay procedure.
Inhibition of 5-lipoxygenase, in vitro: anti-inflammatory, anti-allergy activities.
The 100,000 x g supernatant fraction of Rat Basophilic Leukemia Cell Homogenate (RBL-1) serves as a 5-lipoxygenase enzyme source. The enzyme is incubated with [1-^14 C)-arachidonic acid and Ca++ in the presence and absence of test compound. The product of 5-lipoxygenase, 5-hydroxyeicosatetraenoic acid (5-HETE), is separated by thin-layer chromatography and measured by radioactivity. A compound inhibiting 5-HETE synthesis by 30% or more is considered active at that concentration.

[2] = versus histamine; cited from earlier work

Row | SMILES | IC50 (5-lipoxygenase) [nM] | Effect on FMLP Induced Superoxide: stimulated (% > control) ([1]; stimulated at 1-50 μM) [%] | further results
1 | C[C@H](Sc1cc(C(C)(C)C)c(O)c(C(C)(C)C)c1)[C@@H](C)SCC(=O)NCc1ccncc1 (relative stereo) [Example 17, (±)2S*-[[[2-[[3,5-bis(1,1-dimethylethyl)-4-hydroxyphenyl]thio]-1R*-methylpropyl]thio]-N-(4-pyridinylmethyl)acetamide] | 200 | 60 | 
2 | C[C@H](Sc1cc(C(C)(C)C)c(O)c(C(C)(C)C)c1)[C@@H](C)OCC(=O)O (relative stereo) [Formula IV, reference compound] |  |  | Effect on superoxide generation, in words ([1]; FMLP-stimulated human neutrophils): inhibited both superoxide generation and 5-lipoxygenase; IC50 ([1]; Neutrophil, FMLP-stimulated human neutrophils, read-out: Effect on FMLP Induced Superoxide: inhibited superoxide generation, IC50): 11000 nM
3 | CC(C)(C)c1cc(SCCSCCC(=O)N2CCC(N3CCCCC3)CC2)cc(C(C)(C)C)c1O [Example 21, 1-[3-[[2-[[3,5-bis(1,1-dimethylethyl)-4-hydroxyphenyl]thio]ethyl]thio]-1-oxopropyl]-4-(1-piperidinyl)piperidine] | 150 |  | activation at 50 µM ([1]; Neutrophil): 46%
4 | CC(=O)c1ccc(N2CCN(C(=O)CS[C@H](C)[C@H](C)Sc3cc(C(C)(C)C)c(O)c(C(C)(C)C)c3)CC2)cc1 (relative stereo) [Example 22, (±) 1-(4-acetylphenyl)-4-[2-[[2S*-[[3,5-bis(1,1-dimethylethyl)-4-hydroxyphenyl]thio]-1R*-methylpropyl]thio]-1-oxoethyl]piperazine] | 170 |  | activation at 50 µM ([1]; Neutrophil): 17%
5 | C[C@H](Sc1cc(C(C)(C)C)c(O)c(C(C)(C)C)c1)[C@@H](C)OCC(=O)N(C)CCc1ccccn1 (relative stereo) [Example 14, (±)2S*-[2-[[3,5-bis(1,1-dimethylethyl)-4-hydroxyphenyl]thio]-1R*-methylpropoxy]-N-methyl-N-[2-(2-pyridinyl)ethyl]acetamide] | 220 |  | Effect on FMLP Induced Superoxide: inhibited (% < control) ([1]; inhibited at 25-50 μM, % below control): 57%; Effect on FMLP Induced Superoxide: stimulated (% > control) ([1]; stimulated at 1-10 μM): 171%
6 | CCCCC/C=C\C\C=C/C=C/C=C/[C@@H](SC[C@H](NC(=O)CC[C@H](N)C(=O)O)C(=O)NCC(=O)O)[C@@H](O)CCCC(=O)O [LTC4] |  |  | potency in causing long lasting bronchoconstricting effects relative to histamine [2]: at least 100 times

Further compounds by falling IC50 (5-lipoxygenase), results first:

Row | IC50 (5-lipoxygenase) [nM] | SMILES | Effect on FMLP Induced Superoxide: stimulated (% > control) ([1]; stimulated at 1-50 μM) [%] | further results
7 | 460 | C[C@H](Sc1cc(C(C)(C)C)c(O)c(C(C)(C)C)c1)[C@@H](C)OCC(=O)N1CCN(Cc2ccccc2)CC1 (relative stereo) [Example 19, (±)1-[2-[2S*-[[3,5-bis(1,1-dimethylethyl)-4-hydroxyphenyl]thio]-1R*-methylpropoxy]-1-oxoethyl]-4-(phenylmethyl)piperazine] | 33 | 
8 | 400 | CN1CCN(C(=O)CSCCSc2cc(C(C)(C)C)c(O)c(C(C)(C)C)c2)CC1 [Example 20, 1-[2-[[2-[[3,5-bis(1,1-dimethyethyl)-4-hydroxypheny]thio]ethyl]thio]-1-oxoethyl]-4-methylpiperazine] |  | inhibition at 50 µM ([1]; Neutrophil, % below control): 100%; Effect on FMLP Induced Superoxide: stimulated (% > control) ([1]; stimulated at 1-25 μM): 135%
9 | 160 | CC(C)(C)c1cc(SCCSCC(=O)NCc2ccccn2)cc(C(C)(C)C)c1O [Example 13, 2-[[2-[3,5-bis(1,1-dimethylethyl)-4-hydroxyphenyl]thiolethyl]thio]-N-(2-pyridinylmethyl)acetamide] | 171 | 
10 | 160 | CN(CCc1ccccn1)C(=O)CCSCCSc1cc(C(C)(C)C)c(O)c(C(C)(C)C)c1 [Example 16, 3-[[2-[[3,5-bis(1,1-dimethylethyl)-4-hydroxyphenyl]thio]ethyl]thio]-N-methyl-N-[2-(2-pyridinyl)ethyl]propanamide] | 146 | inhibition at 50 µM ([1]; Neutrophil, % below control): 13%
11 | 130 | CC(C)(C)c1cc(SCCSCC(=O)NCc2cccnc2)cc(C(C)(C)C)c1O [Example 15, 2-[[2-[[3,5-bis (1,1-dimethylethyl)-4-hydroxyphenyl]thio]ethyl]thio]-N-(3-pyridinylmethyl)acetamide] |  | inhibition at 50 µM ([1]; Neutrophil, % below control): 13%; Effect on FMLP Induced Superoxide: stimulated (% > control) ([1]; stimulated at 1-10 μM): 38%
